Results: patent EP0583821A1, “Atriopeptins, guanylate cyclase activators, and phosphodiesterase inhibitors as treatment for glaucoma, hydrocephalus and cerebral edema (cranial fluid volume dysfunction)” (THE GENERAL HOSPITAL CORPORATION, priority 1987, dated 1988)

Columns and labels:
[1] = target: T1, guanylate cyclase (Oryctolagus cuniculus, UniProt G1TXB5); experiment: Atriopeptin-activated guanylate cyclase in kidney membrane (P1) fractions; assay type: biochemical, rabbit; parameters: tissues were homogenized (10 mg wet weight per milliliter); from tissue; host or cells: rabbit cerebral microvessels, choroid plexus, kidney, ciliary process, pia-arachnoid, cerebellum; 100,000 g P1 pellet; details: mean ± range of duplicate determinations
T1 sequence (G1TXB5 28-1056): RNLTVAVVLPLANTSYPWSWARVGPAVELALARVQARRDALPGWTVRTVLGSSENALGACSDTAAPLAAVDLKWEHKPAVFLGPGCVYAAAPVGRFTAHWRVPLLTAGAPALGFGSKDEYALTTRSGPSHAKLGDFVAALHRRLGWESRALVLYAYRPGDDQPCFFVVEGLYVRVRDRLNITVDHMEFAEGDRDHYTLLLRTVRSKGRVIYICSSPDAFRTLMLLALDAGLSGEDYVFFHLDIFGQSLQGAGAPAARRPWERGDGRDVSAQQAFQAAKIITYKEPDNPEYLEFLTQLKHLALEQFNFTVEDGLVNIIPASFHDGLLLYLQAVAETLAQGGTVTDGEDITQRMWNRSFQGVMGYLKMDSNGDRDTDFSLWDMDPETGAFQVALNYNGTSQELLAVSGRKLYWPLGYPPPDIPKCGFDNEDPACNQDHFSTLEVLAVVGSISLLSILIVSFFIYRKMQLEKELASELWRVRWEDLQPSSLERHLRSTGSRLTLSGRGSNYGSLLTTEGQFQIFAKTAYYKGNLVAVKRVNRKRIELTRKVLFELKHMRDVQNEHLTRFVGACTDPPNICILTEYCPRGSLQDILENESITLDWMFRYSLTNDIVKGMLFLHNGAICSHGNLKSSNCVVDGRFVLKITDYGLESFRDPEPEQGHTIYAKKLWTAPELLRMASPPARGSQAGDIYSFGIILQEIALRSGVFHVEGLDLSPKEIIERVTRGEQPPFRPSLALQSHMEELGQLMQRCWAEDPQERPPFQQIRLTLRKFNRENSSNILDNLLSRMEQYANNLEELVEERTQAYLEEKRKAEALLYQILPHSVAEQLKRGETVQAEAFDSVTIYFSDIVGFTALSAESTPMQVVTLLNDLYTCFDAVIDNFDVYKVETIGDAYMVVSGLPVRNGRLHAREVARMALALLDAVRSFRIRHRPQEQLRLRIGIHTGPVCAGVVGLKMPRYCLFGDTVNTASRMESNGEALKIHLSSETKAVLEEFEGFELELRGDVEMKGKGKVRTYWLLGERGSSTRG
Protocol: (§1) The effect of rANP on membrane-bound guanylate cyclase and adenylate cyclase activity in various brain-barrier tissues and tissue fractions from rabbit was compared with its activity in cerebrum and cerebellum. Guanylate cyclase was measured as the rate of cyclic GMP formation by modifications of the technique of Waldman et al., supra, incorporated herein by reference. Briefly, tissues were homogenized (10 mg wet weight per milliliter) in 50 mM tris-HCl, pH 8.0, 1 mM EDTA, 1 mM dithiothreitol, and 250 mM sucrose and centrifuged at 100,000g to obtain a P1 pellet. Reaction tubes contained (in 0.3 ml), 50 mM tris, pH 7.6, 6 mM MnCl₂, 0.5 mM 3-isobutyl, 1-methylxanthine (IBMX), 10 mM theophylline, 3 mM GTP, hormone (in 0.03 ml containing 2.5 mM ascorbic acid and 0.1% bovine serum albumin), and 0.06 ml of P1 fraction (40 to 60 ug of protein). The reaction (4 minutes at 30°C) was started by addition of GTP and terminated by addition of 0.3 ml of 150 mM sodium acetate (pH 4.0) and boiling for 3 minutes. Cyclic GMP formed was subsequently measured by radioimmunoassay as described in example 6, infra. Under these conditions, guanylate cyclase activity was linear with time and tissue concentration. Adenylate cyclase activity in P1 fractions was measured according to the method described by Nathanson, et al., Science; 204:843 (1979); Mol. Pharmacol. 18:199 (1980), see Figure 1C . […] Neurosci. Abstr., 10, 899 (1984); Nathanson, et al., Soc. Neurosci. Abstr., 12, 1257 (1986), incorporated herein by reference, but with a lower concentration (0.025%) of trypsin and a rotating tissue tumbler which allowed cleaner fractionation of epithelial cells from erythrocytes and vascular components.
Ciliary process tips were obtained from male, 3-4 kg, New Zealand white rabbits, immediately following sacrifice with an overdose of ether, as described in Nathanson, Invest. Ophthal. Vis. Sci., 21:7981 (1982). […]
(§2) Atriopeptin-activated guanylate cyclase activity was measured as the rate of conversion of GTP to cyclic GMP. […]

[2] = target: T1, guanylate cyclase; experiment: Atriopeptin-activated guanylate cyclase in ciliary process membrane (P1) fractions; assay type: biochemical, rabbit; parameters: tissues were homogenized (10 mg wet weight per milliliter); from tissue; host or cells: rabbit cerebral microvessels, choroid plexus, kidney, ciliary process, pia-arachnoid, cerebellum; 100,000 g P1 pellet; details: mean ± range of duplicate determinations
Protocol: Ciliary process tips were obtained from male, 3-4 kg, New Zealand white rabbits, immediately following sacrifice with an overdose of ether, as described in Nathanson, Invest. Ophthal. Vis. Sci., 21:7981 (1982). The tissue was minced and homogenized (10 mg/ml) by hand in a glass-glass homogenizer in a buffer consisting of 50 mM Tris HCl, pH 8.0; 1mM EDTA, and 250mM sucrose. The homogenate was diluted 30-fold with buffer and centrifuged at 100,000 x g, to obtain a P1 fraction. The pellet was rehomogenized in the original volume and left on ice until use. P1 fractions were also prepared from wedges of rabbit kidney taken from the same animals. In some experiments, P1 fractions were prepared from iris and from ciliary body, as described in Nathanson, Proc. Natl. Acad. Sci. USA, 77:7420 (1980). Briefly, iris was removed from its attachment to the ciliary body, cleaned of adhering ciliary process tissue, washed, and homogenized as above. The ciliary muscle was cleaned of most remaining ciliary process tissue, freed from the underlying sclera by blunt and sharp dissection, and then washed and homogenized.
as §2
For RIA, each tube contained (in 0.5ml), 50mM sodium acetate buffer (pH 6.2), 2mM EDTA, 1mg/ml bovine serum albumin, 0.1 ml of sample (or diluted sample), 8,000-15,000 cpm (about 5 fmole) of ¹²⁵I succinyl cyclic GMP tyrosine methyl ester, and antibody to bind 25-35% of the label. […] Activation constants (Ka) were determined from dose-response curves utilizing 12-14 data points (6-7 concentrations of hormone, in duplicate), each point representing the mean of triplicate RIA determinations.
Atriopeptin-activated guanylate cyclase activity was measured, as described in Example 5, in membranes from rabbit kidney and ciliary process prepared as in Example 4. […]

[3] = system: rabbits; experiment: Intraocular pressure and ocular observations after topical (eye drop) application; assay type: in vivo, rabbit
Protocol: The measurement of intraocular pressure (IOP), was performed using procedures similar to those described in Nathanson, Brit. J. Pharmacol., 73:97 (1981) and Nathanson, Current Eye Res., 4:191 (1985). Briefly, male (3-5 kg), New Zealand white rabbits were housed under standard conditions and exposed to a 12 hr light-dark cycle. IOP was measured with a Perkins applanation tonometer after topical anesthesia with 0.4% benoxinate (and 0.25% sodium fluorescein). The tonometer had been calibrated previously by connecting the anterior chamber of enucleated rabbit eyes to a manometer (and reservoir) and taking tonometer readings at different pressures. A number of preliminary IOP readings were made in order to accommodate the animals to the measurement procedure. Readings were then taken just prior to drug or vehicle injection and at 3, 9, 20, 27, 44, 51, 72, and 144 hours post-injection.
A potent PDE inhibitor of the arylxanthine class, 1,3-dibutylxanthine, was applied unilaterally and topically to rabbit eyes in a 0.5% solution. […] The IOP was decreased 4 mm (Hg) in the ipsilateral eye (Figure 8).
(§3) Again there was about a 4 mm (Hg) decrease in intraocular pressure. […] This xanthine inhibited the enzyme with an IC₅₀ (concentration necessary for 50% enzyme inhibition) of 25 uM.
The effect of nitroglycerine eye drops on rabbit intraocular pressure was also measured. The IOP of 8 conscious, male albino rabbits (3-4 kg) was measured by applanation pnumatonometry after topical anesthesia with 0.4% benoxinate. Nitroglycerine in phosphate buffered saline, pH 7.4, was given unilaterally, in two 25µl drops spaced five minutes apart. Blood pressure and pulse rate were measured by a photoelectric detector using an automated external tail cuff. […] By 24 hours, pressure had returned to normal.

[4] = target: cGMP phosphodiesterase; experiment: Inhibition of cGMP phosphodiesterase in ciliary process; assay type: biochemical; details: Fig. 9B, read-out: IC₅₀ (concentration necessary for 50% enzyme inhibition)
Description: The ability of any compound to inhibit cGMP phosphodiesterase (PDE) activity in broken-cell preparations of choroid epithelial cells or ciliary process can be determined either 1) by measuring the decrease in rate of hydrolysis of an added amount of cyclic GMP by PDE (see, Methods Section of Nathanson et al., Mol. Pharmacol. 12:390-398 (1975)), or 2) by measuring the rate of accumulation of one of the breakdown products of cyclic GMP, such as 5'-GMP or guanosine (see method of Filburn et al., Anal. Biochem. 52:505-516 (1973)). Both of these are herein incorporated by reference.
as §3

[5] = system: adenylate cyclase; experiment: Adenylate cyclase activity in P1 fractions of whole choroid; assay type: biochemical, rabbit; details: rANP at high concentrations
Protocol: as §1, with “Abstr., 10, 899 (1984); Nathanson, et al., Soc. Neurosci. Abstr., 12, 1257 (1986), incorporated herein by reference, but with a lower concentration (0.025%) of trypsin and a rotating tissue tumbler which allowed cleaner fractionation of epithelial cells from erythrocytes and vascular components.” left out

[6] = system: guanylate cyclase; experiment: Ciliary process guanylate cyclase activity (Tables 2 and 3); assay type: biochemical; details: Table 3; concentration not given

“rANP 1-11 (SLRRSSCFGGR; Atrial natriuretic peptide; UniProt P01161 123-133, looked up, fragment)” was tested, and the “Vmax Stimulation (%) of Guanylate Cyclase Kidney” value [1] was 25 ± 6% and the “Vmax Stimulation (%) of Guanylate Cyclase Ciliary Process” value [2] was 4 ± 6%.

With `CC(C)Cn1c(=O)n(C)c(=O)c2[nH]cnc21` [1-methyl-3-isobutyl-xanthine] the “decrease in intraocular pressure” value ([3]; topical administration, Fig. 9A) was ~4 mm (Hg) and the IC50 [4] was 25 µM.

For `CC(C)NCC(O)c1ccc(O)c(O)c1` (stereo not drawn) [isoproterenol], the “effect on adenylate cyclase activity” value [5] was “stimulated”.

sodium nitrate [COMPOUND "N"] was tested, and the “effect on IOP” value ([3]; 0.1% eye drop preparation, rabbits) was “lowers IOP” and the “CILIARY PROCESS GUANYLATE CYCLASE ACTIVITY (Percent Increase)” value [6] was 46 Percent Increase.

`CCCCn1c(=O)c2[nH]cnc2n(CCCC)c1=O` [1,3-dibutylxanthine] was tested, and the “IOP in the contralateral eye” value ([3]; 0.5% solution, unilateral topical) was “small decrease” and the “decrease of IOP in the ipsilateral eye” value ([3]; 0.5% solution, unilateral topical, rabbit eyes) was 4 mm (Hg).
